Source: patent US9896434B2, “Substituted indanone compounds as GPR119 modulators for the treatment of diabetes, obesity, dyslipidemia and related disorders” (SANOFI, priority 2014, dated 2018)
pEC50: −log10 of the molar value.

Molecular target: T1, human GPR119 (Homo sapiens, UniProt Q8TDV5)
T1 construct: expressed in transfected cells
T1 sequence (Q8TDV5 1-335): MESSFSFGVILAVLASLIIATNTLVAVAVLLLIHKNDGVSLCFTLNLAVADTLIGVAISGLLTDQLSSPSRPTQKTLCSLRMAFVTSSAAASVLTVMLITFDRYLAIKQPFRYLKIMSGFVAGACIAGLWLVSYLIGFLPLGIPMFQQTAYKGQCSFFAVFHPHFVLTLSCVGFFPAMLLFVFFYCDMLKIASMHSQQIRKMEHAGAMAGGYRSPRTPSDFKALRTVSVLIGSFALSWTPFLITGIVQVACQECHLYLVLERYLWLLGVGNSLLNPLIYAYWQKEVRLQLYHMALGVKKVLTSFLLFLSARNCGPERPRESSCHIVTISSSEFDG
Assay: Functional cellular assay measuring GPR119-mediated cAMP release (HTRF)
Type: cell-based
Conditions: HEK-293 cell line stably expressing recombinant human GPR119; cAMP response, 30 minutes at room temperature
Method: Functional Cellular Assays Measuring GPR119-Mediated cAMP Release
Compounds of the invention, which are agonists of GPR119, were characterized by functional assays measuring the cAMP response of HEK-293 cell lines stably expressing recombinant GPR119 from man, mouse or rat, or by using a hamster cell line HIT-T15 expressing GPR119 endogenously. The cAMP content was determined using a kit based on homogenous time-resolved fluorescence (HTRF) from Cisbio Corp. (cat. no. 62AM4PEC). For preparation, cells were split into T175 culture flasks and grown to near confluency in medium (DMEM/10% FCS for HEK-293 cells, and F-12K medium/10% horse serum/2.5% FCS for HIT-T15 cells, respectively). Medium was then removed and cells washed with PBS lacking calcium and magnesium ions, followed by proteinase treatment with accutase (Sigma-Aldrich, cat. no. A6964). Detached cells were washed and resuspended in assay buffer (1×HBSS; 20 mM HEPES, 0.1% BSA, 2 mM IBMX) and cellular density determined. They were then diluted to 400000 cells/mL and 25 μL-aliquots dispensed to the wells of 96-well plates. For measurement, 25 μL of test compound in assay buffer was added and incubated for 30 minutes at room temperature. After addition of HTRF reagents diluted in lysis buffer, the plates were incubated for 1 hour, followed by measuring the fluorescence ratio at 665 vs. 620 nm. Potency of the agonists was quantified by determining the concentrations that caused 50% of the maximal response/activation (EC50). See Table 4 for exemplary data obtained using the cell line expressing human GPR119.

Row | pEC50 | SMILES
1 | 7.34 | CN(C)C(=O)CC1Cc2c(F)cc(N3CC[C@@H](Oc4ccc(OCC5CC5)nc4)C3=O)cc2C1=O (stereo partly drawn) [Example 3-06, 2-[6-[(3R)-3-[[6-(cyclopropylmethoxy)-3-pyridyl]oxy]-2-oxo-pyrrolidin-1-yl]-4-fluoro-1-oxo-indan-2-yl]-N,N-dimethyl-acetamide]
2 | 7.08 | O=C1c2cc(N3CC[C@@H](Oc4ccc(OCC5CC5)nc4)C3=O)cc(F)c2CC1CC(=O)N1CCOCC1 (stereo partly drawn) [Example 3-07, (3R)-3-[[6-(cyclopropylmethoxy)-3-pyridyl]oxy]-1-[7-fluoro-2-(2-morpholino-2-oxo-ethyl)-3-oxo-indan-5-yl]pyrrolidin-2-one]
3 | 7.18 | CNC(=O)CC1Cc2c(F)cc(N3CC[C@@H](Oc4ccc(OCC5CC5)nc4)C3=O)cc2C1=O (stereo partly drawn) [Example 3-08, 2-[6-[(3R)-3-[[6-(cyclopropylmethoxy)-3-pyridyl]oxy]-2-oxo-pyrrolidin-1-yl]-4-fluoro-1-oxo-indan-2-yl]-N-methyl-acetamide]
4 | 6.54 | O=C(CC1Cc2c(F)cc(N3CC[C@@H](Oc4ccc(OCC5CC5)nc4)C3=O)cc2C1=O)NCCO (stereo partly drawn) [Example 3-09, 2-{6-[(R)-3-(6-cyclopropylmethoxy-pyridin-3-yloxy)-2-oxo-pyrrolidin-1-yl]-4-fluoro-1-oxo-indan-2-yl}-N-(2-hydroxy-ethyl)-acetamide]
5 | 7.14 | NC(=O)CC1CC(=O)c2cc(N3CC[C@@H](Oc4ccc(OCC5CC5)nc4)C3=O)cc(F)c21 (stereo partly drawn) [Example 3-10, 2-[5-[(3R)-3-[[6-(cyclopropylmethoxy)-3-pyridyl]oxy]-2-oxo-pyrrolidin-1-yl]-7-fluoro-3-oxo-indan-1-yl]acetamide]
6 | 7.23 | CN(C)C(=O)CC1CC(=O)c2cc(N3CC[C@@H](Oc4ccc(OCC5CC5)nc4)C3=O)cc(F)c21 (stereo partly drawn) [Example 3-11, 2-[5-[(3R)-3-[[6-(cyclopropylmethoxy)-3-pyridyl]oxy]-2-oxo-pyrrolidin-1-yl]-7-fluoro-3-oxo-indan-1-yl]-N,N-dimethyl-acetamide]
